Reference: US8507683B2, “Compounds for the treatment of hepatitis C” (Bristol-Myers Squibb Company, priority 2010, dated 2013)

How the values were obtained:
[1] = tested on: genotype 1b HCV replicon in Huh-7 cells; assay: HCV replicon luciferase assay, genotype 1b; format: cell-based; conditions: Hepatitis C virus, 1b genotype replicon
Method: (§1) Cell Lines. The cell lines used to evaluate compounds consist of a human hepatocyte derived cell line (Huh-7) that constitutively expresses a genotype 1a or 1b HCV replicon containing a Renilla luciferase reporter gene. These cells were maintained in Dulbecco's modified Eagle medium (DMEM) containing 10% FBS, 100 U/mL penicillin/streptomycin and 1.0 mg/mL G418.
(§2) HCV Replicon Luciferase Assay. To evaluate compound efficacy, HCV replicon cells were seeded in 96-well plates in DMEM containing 10% FBS at a cell density of 10^4/well. Following incubation at 37° C. overnight, compounds serially diluted in DMSO were added to the cell plates. Alternatively, titrated compounds were transferred to sterile 384-well tissue-culture treated plates and the plates seeded with 50 μL of cells at a density of 2.4×10^3 cells/well in DMEM containing 4% FCS (final DMSO concentration at 0.5%). After 3 days incubation at 37° C., cells were analyzed for Renilla Luciferase activity using the EnduRen substrate (Promega cat #E6485) according to the manufacturer's directions. Briefly, the EnduRen substrate was diluted in DMEM and then added to the plates to a final concentration of 7.5 μM. The plates were incubated for at least 1 h at 37° C. then read on a TopCount NXT Microplate Scintillation and Luminescence Counter (Packard) or Viewlux Imager (PerkinElmer) using a luminescence program. The 50% effective concentration (EC50) was calculated using the exponential form of the median effect equation where EC50=100−[(δFinh/δFcon)×100].

[2] = biological target: HCV NS5B RdRp genotype 1b (Hepatitis C virus genotype 1b (isolate Con1) (HCV), UniProt Q9WMX2); assay: HCV NS5B RdRp enzyme assay; format: biochemical
Method: HCV NS5B RdRp Cloning, Expression, and Purification. The cDNA encoding the NS5B protein of HCV, genotype 1b, was cloned into the pET21a expression vector. The protein was expressed with an 18 amino acid C-terminal truncation to enhance the solubility. The E. coli competent cell line BL21(DE3) was used for expression of the protein. Cultures were grown at 37° C. for ˜4 hours until the cultures reached an optical density of 2.0 at 600 nm. The cultures were cooled to 20° C. and induced with 1 mM IPTG. Fresh ampicillin was added to a final concentration of 50 μg/mL and the cells were grown overnight at 20° C.
Cell pellets (3 L) were lysed for purification to yield 15-24 mgs of purified NS5B. The lysis buffer consisted of 20 mM Tris-HCl, pH 7.4, 500 mM NaCl, 0.5% triton X-100, 1 mM DTT, 1 mM EDTA, 20% glycerol, 0.5 mg/ml lysozyme, 10 mM MgCl2, 15 ug/ml deoxyribonuclease I, and Complete TM protease inhibitor tablets (Roche). After addition of the lysis buffer, frozen cell pellets were resuspended using a tissue homogenizer. To reduce the viscosity of the sample, aliquots of the lysate were sonicated on ice using a microtip attached to a Branson sonicator. The sonicated lysate was centrifuged at 100,000×g for 30 minutes at 4° C. and filtered through a 0.2 μm filter unit (Corning).
The protein was purified using two sequential chromatography steps: Heparin sepharose CL-6B and polyU sepharose 4B. The chromatography buffers were identical to the lysis buffer but contained no lysozyme, deoxyribonuclease I, MgCl2 or protease inhibitor and the NaCl concentration of the buffer was adjusted according to the requirements for charging the protein onto the column. Each column was eluted with a NaCl gradient which varied in length from 5-50 column volumes depending on the column type. After the final chromatography step, the resulting purity of the enzyme is >90% based on SDS-PAGE analysis. The enzyme was aliquoted and stored at −80° C.
Standard HCV NS5B RdRp Enzyme Assay. HCV RdRp genotype 1b assays were run in a final volume of 60 μl in 96 well plates (Costar 3912) . The assay buffer is composed of 20 mM Hepes, pH 7.5, 2.5 mM KCl, 2.5 mM MgCl2, 1 mM DTT, 1.6 U RNAse inhibitor (Promega N2515), 0.1 mg/ml BSA (Promega R3961), and 2% glycerol. All compounds were serially diluted (3-fold) in DMSO and diluted further in water such that the final concentration of DMSO in the assay was 2%. HCV RdRp genotype 1b enzyme was used at a final concentration of 28 nM. A polyA template was used at 6 nM, and a biotinylated oligo-dT12 primer was used at 180 nM final concentration. Template was obtained commercially (Amersham 27-4110). Biotinylated primer was prepared by Sigma Genosys. ^3H-UTP was used at 0.6 μCi (0.29 μM total UTP). Reactions were initiated by the addition of enzyme, incubated at 30° C. for 60 min, and stopped by adding 25 μL of 50 mM EDTA containing SPA beads (4 μg/μL, Amersham RPNQ 0007). Plates were read on a Packard Top Count NXT after >1 hr incubation at room temperature.
Modified HCV NS5B RdRp Enzyme Assay. An on-bead solid phase homogeneous assay was also used to assess NS5B inhibitors (WangY-K, Rigat K, Roberts S, and Gao M (2006) Anal Biochem, 359: 106-111). The assay is a modification of the standard assay described above and was used in a 96-well or a 384-well format. […]

[3] = tested on: genotype 1a HCV replicon in Huh-7 cells; assay: HCV replicon luciferase assay, genotype 1a; format: cell-based; conditions: Hepatitis C virus, 1a genotype used for replicon data
Method: as §1
as §2, with “The 50% effective concentration (EC50) was calculated using the exponential form of the median effect equation where EC50=100−[(δFinh/δFcon)×100].” left out

HCV = conditions: cited from earlier work

Chain of HCV NS5B RdRp genotype 1b (Q9WMX2 2420-2992): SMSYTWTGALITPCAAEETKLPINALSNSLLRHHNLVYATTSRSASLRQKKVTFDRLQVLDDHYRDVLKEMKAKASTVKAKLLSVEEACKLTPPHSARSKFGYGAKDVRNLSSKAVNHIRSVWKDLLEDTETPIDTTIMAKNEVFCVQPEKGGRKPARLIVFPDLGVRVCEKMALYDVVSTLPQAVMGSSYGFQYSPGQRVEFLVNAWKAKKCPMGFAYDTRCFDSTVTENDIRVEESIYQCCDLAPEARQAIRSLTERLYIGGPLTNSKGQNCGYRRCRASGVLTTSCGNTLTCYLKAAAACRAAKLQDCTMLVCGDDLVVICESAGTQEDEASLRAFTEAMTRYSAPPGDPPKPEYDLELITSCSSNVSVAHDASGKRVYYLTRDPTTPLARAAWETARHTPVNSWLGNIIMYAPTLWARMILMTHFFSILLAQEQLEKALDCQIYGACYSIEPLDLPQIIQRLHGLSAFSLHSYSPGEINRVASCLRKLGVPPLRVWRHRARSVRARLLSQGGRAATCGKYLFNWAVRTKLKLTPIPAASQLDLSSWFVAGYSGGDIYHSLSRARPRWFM

SMILES	EC50 [1] [nM]	IC50 [2] [nM]	EC50 [3] [nM]	hepatic toxicity (HCV; extended dosing of the combination regimens with interferon and ribavirin)	HCV RNA levels in patients (HCV; patients, single agent)
CNC(=O)c1c(-c2ccc(F)cc2)oc2ccc(-c3cc(C(=O)NC4(c5ccccc5)COC4)ccc3C)c(F)c12	4	57	–	–	–
CNC(=O)c1c(-c2ccc(F)cc2)oc2ccc(-c3cc(C(=O)NC4(c5ccccn5)COC4)c(OC)cc3C)c(F)c12	8	17	–	–	–
CNC(=O)c1c(-c2ccc(F)cc2)oc2ccc(-c3cc(C(=O)NC4(c5ncccn5)COC4)c(OC)cc3C)c(F)c12 [4-fluoro-2-(4-fluorophenyl)-5-(4-methoxy-2-methyl-5-(3-(pyrimidin-2-yl)oxetan-3-ylcarbamoyl)phenyl)-N-methylbenzofuran-3-carboxamide]	12	22	–	–	–
CNC(=O)c1c(-c2ccc(F)cc2)oc2ccc(-c3cc(C(=O)NC4(c5ccccn5)COC4)ccc3C)c(F)c12 [4-fluoro-2-(4-fluorophenyl)-N-methyl-5-(2-methyl-5-(3-(pyridin-2-yl)oxetan-3-ylcarbamoyl)phenyl)benzofuran-3-carboxamide]	–	24	24	–	–
CNC(=O)c1c(-c2ccc(F)cc2)oc2ccc(-c3cc(C(=O)NC4(c5ncccn5)COC4)ccc3C)c(F)c12 [4-fluoro-2-(4-fluorophenyl)-N-methyl-5-(2-methyl-5-(3-(pyrimidin-2-yl)oxetan-3-ylcarbamoyl)phenyl)benzofuran-3-carboxamide]	15	10	–	–	–
CNC(=O)c1c(-c2ccc(F)cc2)oc2ccc(-c3cc(C(=O)NC4(c5ccccn5)COC4)cc(F)c3C)c(F)c12 [4-fluoro-5-(3-fluoro-2-methyl-5-(3-(pyridin-2-yl)oxetan-3-ylcarbamoyl)phenyl)-2-(4-fluorophenyl)-N-methylbenzofuran-3-carboxamide]	6	16	–	–	–
CNC(=O)c1c(-c2ccc(F)cc2)oc2ccc(-c3cc(C(=O)NC4(c5ncccn5)COC4)cc(F)c3C)c(F)c12 [4-fluoro-5-(3-fluoro-2-methyl-5-(3-(pyrimidin-2-yl)oxetan-3-ylcarbamoyl)phenyl)-2-(4-fluorophenyl)-N-methylbenzofuran-3-carboxamide]	12	6	–	–	–
CNC(=O)c1c(-c2ccc(F)cc2)oc2cc(N(CCO)S(C)(=O)=O)c(C3CC3)cc12 [HCV-796]	–	–	–	hepatic toxicity observed	showed an ability to reduce HCV RNA levels in patients
